In patent US7569572B2, “Pyrazolo[4,3-D]pyrimidines” (Pfizer Inc, priority 2004, dated 2009) one finds IC50 data, which are given here for 16 compounds.

By IC50 is commonly meant the concentration that gives 50% inhibition. Low values mean inhibition by little substance, high ones a need for much substance.

Structures can show the parent of a compound that is named as a salt.

The target in the first assay is T1, human platelet PDE5 (Homo sapiens, UniProt O76074).
T1 construct: utilizes PDE5 isolated from human platelets; from tissue; host or cells: human platelets
Briefly: Method B: PDE-5 Inhibition Scintillation Proximity Assay (SPA) - Human Platelet (modified protocol of Method A). Type of assay: biochemical. The following applies: cGMP substrate 50 nM, PDE5 isolated from human platelets. As for the experimental part: Method B: PDE-5 Inhibition Scintillation Proximity Assay (SPA)—Human Platelet
This method is a modified protocol of Method A.
(§1) The assay measures the inhibition of human platelet PDE5 enzyme activity by a test compound in an in vitro assay that utilizes PDE5 isolated from human platelets. PDE5 catalyzes the hydrolysis of [^3H]cGMP to the 5′ nucleotide [^3H]GMP. [^3H]GMP binds to yttrium silicate SPA beads and is detected by scintillation counting. The inhibition of enzyme activity is calculated relative to total PDE5 activity of uninhibited controls.
(§2) PDE5 IC50 Assay: 96-Well Microtiter Plate Format
(§3) Buffer A: 20 mM Tris-HCl, 5 mM MgCl2, pH 7.4
(§4) Buffer B: 2 mg/ml BSA in Buffer A (enzyme buffer)
cGMP substrate: Final concentration of 50 nM in assay
The amount of ^3H-labeled substrate added depends upon the specific activity of [^3H]cGMP, and it is diluted in Buffer A.
(§5) PDE enzyme: Prepared in Buffer B. The dilution factor is determined by enzyme activity.
SPA beads: 4 mg/ml suspension prepared in dH2O.
Stocks of standard and test compounds are prepared at 2 mM in 100% DMSO. Compounds are serially diluted in separate dilution plates using an 8-point ⅕ log dilution format such that the starting concentration in the assay is 2 μM for an initial IC50 screen. 27 μl of Buffer A are added to the wells of the assay plates. From the dilution plates, 3 μl of diluted compounds are delivered in duplicate or 3 μl of 100% DMSO (for positive and negative controls) are added. 30 μl of enzyme are added. For the negative control wells, Buffer B is substituted in place of the enzyme. 30 μl of labeled substrate are added to all wells.
After incubating for 60 minutes at room temperature, the reaction is stopped with the addition of 30 μl of the yttrium silicate beads. These beads are dense and require constant agitation while being added to the plate. The plates are sealed and shaken on a plate shaker for fifteen minutes to allow the beads to bind the GMP product.
After allowing the beads to settle for 30 minutes, plates are read on a NXT TopCount and data is analyzed in the Bioassay Solver application. Percent inhibition values are calculated using the means of the 0% and 100% controls on each plate. The estimates of the 4-parameters of the logistic, sigmoid dose-response model are then calculated using the well-level percent inhibition values for each compound. These estimates are used to calculate the concentration that corresponds to 50% inhibition.
(In a scintillation proximity assay essentially only radioactivity close to the scintillant gives light.)
For `FC(F)(F)COCCn1nc(CN2CCNCC2)c2nc(N3CCNCC3)nc(Nc3ccncn3)c21` [Example 41, 5-Piperazin-1-yl-3-(piperazin-1-ylmethyl)-N-pyrimidin-4-yl-1-[2-(2,2,2-trifluoroethoxy)ethyl]-1H-pyrazolo[4,3-d]pyrimidin-7-amine trifluoroacetate], the 50% inhibitory concentration (IC50) turned out to be 1.8 nM.
Same read-out and setting: the result for `CCN(C)c1nc(Nc2ccncn2)c2c(n1)c(CN1CCSCC1)nn2CCOCC(F)(F)F` [Example 44, N^5-Ethyl-N^5-methyl-N^7-pyrimidin-4-yl-3-(thiomorpholin-4-ylmethyl)-1-[2-(2,2,2-trifluoroethoxy)ethy]-1H-pyrazolo[4,3-d]pyrimidine-5,7-diamine trifluoroacetate] reads 0.79 nM.
Same read-out and setting: with `CCN(CC)Cc1nn(CCOCC(F)(F)F)c2c(Nc3ccncn3)nc(N(CC)CC)nc12` [Example 48, 3-[(Diethylamino)methyl]-N^5,N^5-diethyl-N^7-pyrimidin-4-yl-1-[2-(2,2,2-trifluoroethoxy)ethyl]-1H-pyrazolo[4,3-d]pyrimidine-5,7-diamine trifluoroacetate] the figure was 7.39 nM.
`FC(F)(F)COCCn1nc(CN2CCOCC2)c2nc(N3CCNCC3)nc(Nc3ccncn3)c21` [Example 43, 3-(Morpholin-4-ylmethyl)-5-piperazin-1-yl-N-pyrimidin-4-yl-1-[2-(2,2,2-trifluoroethoxy)ethyl]-1H-Pyrazolo[4,3-d]pyrimidin-7-amine trifluoroacetate] showed a half-maximal inhibitory concentration (IC50) of 0.21 nM.
On the same count and under the same terms, with `C[C@@H]1CN(c2nc(Nc3ccncn3)c3c(n2)c(CN2CCCCC2)nn3CCOCC(F)(F)F)CCN1` [Example 45, 5-[(3R)-3-Methylpiperazin-1-yl]-3-(piperidin-1-ylmethyl)-N-pyrimidin-4-yl-1-[2-(2,2,2-trifluoroethoxy)ethyl]-1H-pyrazolo[4,3-d]pyrimidin-7-amine trifluoroacetate] the figure was 1.25 nM; with `C[C@@H]1CN(c2nc(Nc3ccncn3)c3c(n2)c(CN2CCOCC2)nn3CCOCC(F)(F)F)CCN1` [Example 42, 5-[(3R)-3-Methylpiperazin-1-yl]-3-(morpholin-4-ylmethyl)-N-pyrimidin-4-yl-1-[2-(2,2,2-trifluoroethoxy)ethyl]-1H-pyrazolo[4,3-d]pyrimidin-7-amine trifluoroacetate], 0.32 nM.
Same read-out and setting: the result for `C[C@@H]1CN(c2nc(Nc3ccncn3)c3c(n2)c(CN2CCN(C)CC2)nn3CCOCC(F)(F)F)CCN1` [Example 47, 5-[(3R)-3-Methylpiperazin-1-yl]-3-[(4-methylpiperazin-1-yl)methyl]-N-pyrimidin-4-yl-1-[2-(2,2,2-trifluoroethoxy)ethyl]-1H-pyrazolo[4,3-d]pyrimidin-7-amine trifluoroacetate] reads 0.47 nM.
Compound `C[C@@H]1CN(c2nc(Nc3ccncn3)c3c(n2)c(CN2CCS(=O)(=O)CC2)nn3CCOCC(F)(F)F)CCN1` [Example 49, 3-[(1,1-Dioxidothiomorpholin-4-yl)methyl]-5-[(3R)-3-methylpiperazin-1-yl]-N-pyrimidin-4-yl-1-[2-(2,2,2-trifluoroethoxy)ethyl]-1H-pyrazolo[4,3-d]pyrimidin-7-amine trifluoroacetate] returned an IC50 of 0.58 nM.
Same read-out and setting: with `FC(F)(F)CNCc1nn(CCOCC(F)(F)F)c2c(Nc3ccncn3)nc(N3CCNCC3)nc12` [Example 50, 1-(2-(2,2,2-trifluoroethoxy)ethyl)-3-((2,2,2-trifluoroethylamino)methyl)-5-(piperazin-1-yl)-N-(pyrimidin-4-yl)-1H-pyrazolo[4,3-d]pyrimidin-7-amine trifluoroacetate] the figure was 1.06 nM.
On the same count and under the same terms, the result for `C[C@@H]1CN(c2nc(Nc3ccncn3)c3c(n2)c(CN2CCSCC2)nn3CCOCC(F)(F)F)CCN1` [Example 46, 5-[(3R)-3-methylpiperazin-1-yl]-N-pyrimidin-4-yl-3-(thiomorpholin-4-ylmethyl)-1-[2-(2,2,2-trifluoroethoxy)ethyl]-1H-pyrazolo[4,3-d]pyrimidin-7-amine trifluoroacetate] reads 0.14 nM.

The next assay has as its target T1, human platelet PDE5. The experiment in a line: Method A: PDE-5 Inhibition Scintillation Proximity Assay (SPA) - Human Platelet. Conditions: cGMP substrate 500 nM, PDE5 isolated from human platelets. Type of assay: biochemical.
Description: Method A: PDE-5 Inhibition Scintillation Proximity Assay (SPA)—Human Platelet
as §1, with “platelets. The PDE5 enzyme can be isolated from platelets essentially by a modification of the method of Thompson, W J et al.; Biochemistry 18(23), 5228-5237, 1979, as described by Ballard S A et al.; J. Urology 159(6), 2164-2171, 1998.” for “platelets.”, “counting. […]” for “counting.”
as §2, §3, §4
cGMP substrate: Final concentration of 500 nM in assay
The amount of ^3H-labeled substrate added depends upon the specific activity of [^3H]cGMP, and it is diluted with a 10 mM stock of cold cGMP in Buffer A for a final substrate concentration of 500 nM in the assay.
as §5
SPA beads: 20 mg/ml suspension prepared in dH2O.
Stocks of standard and test compounds are prepared at 5 mM in 100% DMSO. Compounds are serially diluted in separate dilution plates using a 10-point ½ log dilution format. 2 μl of the compound dilutions are added in duplicate to the wells of the assay plate; 2 μl of 100% DMSO are added to designated control wells. 25 μl of Buffer A are added to all wells. 25 μl of Buffer B are added to the negative control wells, and 25 μl of enzyme are added to the remaining wells. 50 μl of substrate are added to each well. Plates are sealed and incubated for 60 minutes on a plate shaker at 30 C. 50 μl of SPA beads are added to stop the reaction. The plates are again sealed and shaken for 15 minutes to allow the beads to bind the GMP product. The beads are allowed to settle for 30 minutes and then read on a NXT TopCount. Data is analyzed with the ECADA application. In this analysis, % inhibition is calculated: (mean maximum−compound value/(mean maximum−mean minimum)×100. IC50s are determined from sigmoid dose-response curves of enzyme activity vs compound concentration.
Compound `CCOCCn1nc(CN2CC[C@H](OC)C2)c2nc(N(C)C)nc(Nc3cc(C)ccn3)c21` [Example 21] displayed a half-maximal inhibitory concentration (IC50) of 2 nM.
Regarding `CCCNCc1nn(CCOCC)c2c(Nc3cc(C)ccn3)nc(N(C)C)nc12` [Example 24], the IC50 came to 5.8 nM.
The same measure, in the same setting: the result for `CCOCCn1nc(CN(C)C(C)=O)c2nc(N(C)C)nc(Nc3ccncn3)c21` [Example 16, N-[5-Dimethylamino-1-(2-ethoxyethyl)-7-(pyrimidin-4-ylamino)-1H-pyrazolo[4,3-d]pyrimidin-3-ylmethyl]-N-methylacetamide] reads 5.9 nM; that for `CCNc1nc(Nc2cc(C)ccn2)c2c(n1)c(CNC(C)=O)nn2CCOCC` [Example 8, N-[1-(2-ethoxyethyl)-5-ethylamino-7-(4-methylpyridin-2-ylamino)-1H-pyrazolo[4,3-d]pyrimidin-3-ylmethyl]acetamide], 0.59 nM; that for `CCOCCn1nc(CNC)c2nc(N(C)CCOC)nc(Nc3cc(C)ccn3)c21` [Example 37, 1-(2-ethoxyethyl)-N^5-(2-methoxyethyl)-N^5-methyl-3-(methylaminomethyl)-N^7-(4-methylpyridin-2-yl)-1H-pyrazolo[4,3-d]pyrimidine-5,7-diamine hydrochloride], 4.4 nM.
Still for that read-out and setting: the result for `CCCN(Cc1nn(CCOCC)c2c(Nc3cc(C)ccn3)nc(N(C)C)nc12)C(C)=O` [Example 39, N-[5-Dimethylamino-1-(2-ethoxyethyl)-7-(4-methylpyridin-2-ylamino)-1H-pyrazolo[4,3-d]pyrimidin-3-ylmethyl]-N-propylacetamide] reads 1.53 nM.
